Data from patent publication US20150291610A1, “C20' Urea Derivatives of Vinca Alkaloids” (THE SCRIPPS RESEARCH INSTITUTE, priority 2012, published 2015).
Like-named read-outs stand apart in the source and are kept apart here.

Legend:
[1] = system: L1210 (mouse lymphocytic leukemia) cells; assay: Cell growth inhibition assay, L1210; format: cell-based; conditions: L1210 murine leukemia cell line; avg of 4-16 determinations
Procedure: (§1) A population of cells (>1×10^6 cells/mL as determined with a hemocytometer) was diluted with an appropriate amount of Dulbecco-modified Eagle Medium (DMEM, Gibco) containing 10% fetal bovine serum (FBS, Gibco) to a final concentration of 30,000 cells/mL.
(§2) To each well of a 96-well plate (Corning Costar), 100 μL of the cell-media solution was added with a multichannel pipette. The cultures were incubated at 37° C. in an atmosphere of 5% CO2 and 95% humidified air for 24 hours. The test compounds were added to the plate as follows: test substances were diluted in DMSO to a concentration of 1 mM and 10-fold serial dilutions were performed on a separate 96-well plate. Fresh culture medium (100 μL) was added to each well of cells to constitute 200 μL of medium per well followed by 2 μL of each test agent. Compounds were tested in duplicate (n=2-8 times) at six concentrations between 0-1,000 nM or 0-10,000 nM. Following addition, cultures were incubated for an additional 72 hours.
(§3) The plates were incubated at 37° C. for either 5 minutes (L1210) or 15 minutes (HCT116 and HCT116/VM46).

[2] = system: HCT116/VM46 (vinblastine-resistant strain of HCT116, Pgp over-expression) cells; assay: Cell growth inhibition assay, HCT116/VM46; conditions: for IC50: read-out: IC50 (nM) HCT116/VM46, resistant human colon cancer cell line, Pgp over-expression; for fold improvement over vinblastine, HCT116/VM46: relative to vinblastine
Procedure: as §1, §2, §3

[3] = system: HCT116 (human colorectal carcinoma) cells; assay: Cell growth inhibition assay, HCT116; format: cell-based; conditions: for fold more potent than vinblastine, HCT116: relative to vinblastine
Procedure: as §1, §2, §3

[4] = HCT116 human colon cancer cell line, avg of 4-16 determinations, read-out: IC50 (nM) HCT116
[5] = text values in pM, read-out: IC50 HCT116

Row | SMILES | IC50 [1] [nM] | IC50 [2] [nM] | IC50 [3, 4] [nM] | fold improvement over vinblastine, HCT116/VM46 [2] [fold] | fold more potent than vinblastine, HCT116 [3] [fold] | IC50 [3, 5] [nM] | activity difference between sensitive HCT116 and vinblastine-resistant HCT116/VM46 ([2]; HCT116/VM46 vs HCT116) [fold]
1 | CC[C@]1(NC(=O)NCc2ccccc2)C[C@@H]2CN(CCc3c([nH]c4ccccc34)[C@@](C(=O)OC)(c3cc4c(cc3OC)N(C)[C@H]3[C@@](O)(C(=O)OC)[C@H](OC(C)=O)[C@]5(CC)C=CCN6CC[C@]43[C@@H]65)C2)C1 [Compound 31] | 6.4 | 740 | 7.3 |  |  |  | 
2 | CC[C@]1(NC(=O)N2CCN(C)CC2)C[C@@H]2CN(CCc3c([nH]c4ccccc34)[C@@](C(=O)OC)(c3cc4c(cc3OC)N(C)[C@H]3[C@@](O)(C(=O)OC)[C@H](OC(C)=O)[C@]5(CC)C=CCN6CC[C@]43[C@@H]65)C2)C1 [Compound 54] | 7.7 | 710 | 3.4 |  |  |  | 
3 | CCCCNC(=O)N[C@@]1(CC)C[C@@H]2CN(CCc3c([nH]c4ccccc34)[C@@](C(=O)OC)(c3cc4c(cc3OC)N(C)[C@H]3[C@@](O)(C(=O)OC)[C@H](OC(C)=O)[C@]5(CC)C=CCN6CC[C@]43[C@@H]65)C2)C1 [Compound 19] | 5.7 | 270 | 4.6 |  |  |  | 
4 | CC[C@]1(NC(=O)NC(C)(C)C)C[C@@H]2CN(CCc3c([nH]c4ccccc34)[C@@](C(=O)OC)(c3cc4c(cc3OC)N(C)[C@H]3[C@@](O)(C(=O)OC)[C@H](OC(C)=O)[C@]5(CC)C=CCN6CC[C@]43[C@@H]65)C2)C1 [Compound 20] | 40 | 670 | 20 |  |  |  | 
5 | CC[C@]1(NC(=O)NCCO)C[C@@H]2CN(CCc3c([nH]c4ccccc34)[C@@](C(=O)OC)(c3cc4c(cc3OC)N(C)[C@H]3[C@@](O)(C(=O)OC)[C@H](OC(C)=O)[C@]5(CC)C=CCN6CC[C@]43[C@@H]65)C2)C1 [Compound 22] | 48 | > 1000 | 8.8 |  |  |  | 
6 | CC[C@]1(NC(=O)NCCc2ccccc2)C[C@@H]2CN(CCc3c([nH]c4ccccc34)[C@@](C(=O)OC)(c3cc4c(cc3OC)N(C)[C@H]3[C@@](O)(C(=O)OC)[C@H](OC(C)=O)[C@]5(CC)C=CCN6CC[C@]43[C@@H]65)C2)C1 [Compound 32] | 6.3 | 590 | 6.3 |  |  |  | 
7 | CCC1(NC(=O)Nc2ccc(OC)cc2)CC2CN(CCc3c([nH]c4ccccc34)C(C(=O)OC)(c3cc4c(cc3OC)N(C)C3C(O)(C(=O)OC)C(OC(C)=O)C5(CC)C=CCN6CCC43C65)C2)C1 (stereo not drawn) [Compound 28] | 4.9 | 230 | 2 |  |  |  | 
8 | CCNC(=O)N[C@@]1(CC)C[C@@H]2CN(CCc3c([nH]c4ccccc34)[C@@](C(=O)OC)(c3cc4c(cc3OC)N(C)[C@H]3[C@@](O)(C(=O)OC)[C@H](OC(C)=O)[C@]5(CC)C=CCN6CC[C@]43[C@@H]65)C2)C1 [Compound 15] | 2.1 | 90 | 0.73 | 10 |  |  | 
9 | CC[C@]1(NC(=O)Nc2cccc(OC)c2)C[C@@H]2CN(CCc3c([nH]c4ccccc34)[C@@](C(=O)OC)(c3cc4c(cc3OC)N(C)[C@H]3[C@@](O)(C(=O)OC)[C@H](OC(C)=O)[C@]5(CC)C=CCN6CC[C@]43[C@@H]65)C2)C1 [Compound 29] | 5.4 | 80 |  | 10 | ~10 | 0.77 | 
10 | CC[C@]1(NC(=O)NCc2ccco2)C[C@@H]2CN(CCc3c([nH]c4ccccc34)[C@@](C(=O)OC)(c3cc4c(cc3OC)N(C)[C@H]3[C@@](O)(C(=O)OC)[C@H](OC(C)=O)[C@]5(CC)C=CCN6CC[C@]43[C@@H]65)C2)C1 [Compound 34] | 5.4 | 530 | 5.1 |  |  |  | 
11 | CC[C@]1(NC(=O)Nc2ccccc2)C[C@@H]2CN(CCc3c([nH]c4ccccc34)[C@@](C(=O)OC)(c3cc4c(cc3OC)N(C)[C@H]3[C@@](O)(C(=O)OC)[C@H](OC(C)=O)[C@]5(CC)C=CCN6CC[C@]43[C@@H]65)C2)C1 [Compound 23] | 6.5 | 390 | 5.1 |  |  |  | 
12 | CC[C@]1(NC(=O)Nc2ccc(C)cc2)C[C@@H]2CN(CCc3c([nH]c4ccccc34)[C@@](C(=O)OC)(c3cc4c(cc3OC)N(C)[C@H]3[C@@](O)(C(=O)OC)[C@H](OC(C)=O)[C@]5(CC)C=CCN6CC[C@]43[C@@H]65)C2)C1 [Compound 26] | 4.5 | 330 | 4.8 |  |  |  | 
13 | CC[C@]1(NC(=O)N2Cc3ccc(OC)cc3C2)C[C@@H]2CN(CCc3c([nH]c4ccccc34)[C@@](C(=O)OC)(c3cc4c(cc3OC)N(C)[C@H]3[C@@](O)(C(=O)OC)[C@H](OC(C)=O)[C@]5(CC)C=CCN6CC[C@]43[C@@H]65)C2)C1 [Compound 59] | 0.61 | 8.7 | 0.69 |  |  |  | 
14 | CCCNC(=O)N[C@@]1(CC)C[C@@H]2CN(CCc3c([nH]c4ccccc34)[C@@](C(=O)OC)(c3cc4c(cc3OC)N(C)[C@H]3[C@@](O)(C(=O)OC)[C@H](OC(C)=O)[C@]5(CC)C=CCN6CC[C@]43[C@@H]65)C2)C1 [Compound 16] | 6 | 221 | 2.7 |  |  |  | 
15 | CC[C@]1(NC(=O)N2CCCCC2)C[C@@H]2CN(CCc3c([nH]c4ccccc34)[C@@](C(=O)OC)(c3cc4c(cc3OC)N(C)[C@H]3[C@@](O)(C(=O)OC)[C@H](OC(C)=O)[C@]5(CC)C=CCN6CC[C@]43[C@@H]65)C2)C1 [Compound 42] | 5.5 | 50 | 3.9 |  |  |  | 10
16 | CCC1(NC(=O)NC)CC2CN(CCc3c([nH]c4ccccc34)C(C(=O)OC)(c3cc4c(cc3OC)N(C)C3C(O)(C(=O)OC)C(OC(C)=O)C5(CC)C=CCN6CCC43C65)C2)C1 (stereo not drawn) [Compound 14] | 5.7 | 530 | 0.82 |  |  |  | 
17 | CC[C@]1(NC(=O)NC(C)C)C[C@@H]2CN(CCc3c([nH]c4ccccc34)[C@@](C(=O)OC)(c3cc4c(cc3OC)N(C)[C@H]3[C@@](O)(C(=O)OC)[C@H](OC(C)=O)[C@]5(CC)C=CCN6CC[C@]43[C@@H]65)C2)C1 [Compound 17] | 5.5 | 430 | 5.7 |  |  |  | 
18 | CC[C@]1(NC(=O)NC2CCCCC2)C[C@@H]2CN(CCc3c([nH]c4ccccc34)[C@@](C(=O)OC)(c3cc4c(cc3OC)N(C)[C@H]3[C@@](O)(C(=O)OC)[C@H](OC(C)=O)[C@]5(CC)C=CCN6CC[C@]43[C@@H]65)C2)C1 [Compound 21] | 5.8 | 450 | 5.4 |  |  |  | 
19 | CC[C@]1(NC(=O)Nc2ccc(F)cc2)C[C@@H]2CN(CCc3c([nH]c4ccccc34)[C@@](C(=O)OC)(c3cc4c(cc3OC)N(C)[C@H]3[C@@](O)(C(=O)OC)[C@H](OC(C)=O)[C@]5(CC)C=CCN6CC[C@]43[C@@H]65)C2)C1 [Compound 24] | 5.7 | 400 | 3.9 |  |  |  | 
20 | CC[C@]1(NC(=O)N2CCSCC2)C[C@@H]2CN(CCc3c([nH]c4ccccc34)[C@@](C(=O)OC)(c3cc4c(cc3OC)N(C)[C@H]3[C@@](O)(C(=O)OC)[C@H](OC(C)=O)[C@]5(CC)C=CCN6CC[C@]43[C@@H]65)C2)C1 [Compound 53] | 2.1 | 50 | 0.88 |  |  |  | 
21 | CC[C@]1(NC(=O)Nc2ccc(C(F)(F)F)cc2)C[C@@H]2CN(CCc3c([nH]c4ccccc34)[C@@](C(=O)OC)(c3cc4c(cc3OC)N(C)[C@H]3[C@@](O)(C(=O)OC)[C@H](OC(C)=O)[C@]5(CC)C=CCN6CC[C@]43[C@@H]65)C2)C1 [Compound 27] | 7.3 | 610 | 7.1 |  |  |  | 
22 | CC[C@]1(NC(=O)N2CCC(c3ccccc3)CC2)C[C@@H]2CN(CCc3c([nH]c4ccccc34)[C@@](C(=O)OC)(c3cc4c(cc3OC)N(C)[C@H]3[C@@](O)(C(=O)OC)[C@H](OC(C)=O)[C@]5(CC)C=CCN6CC[C@]43[C@@H]65)C2)C1 [Compound 56] | 5.3 | 55 | 3.1 |  |  |  | 
23 | CC[C@]1(NC(=O)Nc2ccc(Cl)cc2)C[C@@H]2CN(CCc3c([nH]c4ccccc34)[C@@](C(=O)OC)(c3cc4c(cc3OC)N(C)[C@H]3[C@@](O)(C(=O)OC)[C@H](OC(C)=O)[C@]5(CC)C=CCN6CC[C@]43[C@@H]65)C2)C1 [Compound 25] | 6.2 | 590 | 6.7 |  |  |  | 
24 | CC[C@]1(NC(=O)N2CCOCC2)C[C@@H]2CN(CCc3c([nH]c4ccccc34)[C@@](C(=O)OC)(c3cc4c(cc3OC)N(C)[C@H]3[C@@](O)(C(=O)OC)[C@H](OC(C)=O)[C@]5(CC)C=CCN6CC[C@]43[C@@H]65)C2)C1 [Compound 41] | 5.3 | 360 | 4.5 |  |  |  | 
25 | CC[C@]1(NC(=O)Nc2ccccc2OC)C[C@@H]2CN(CCc3c([nH]c4ccccc34)[C@@](C(=O)OC)(c3cc4c(cc3OC)N(C)[C@H]3[C@@](O)(C(=O)OC)[C@H](OC(C)=O)[C@]5(CC)C=CCN6CC[C@]43[C@@H]65)C2)C1 [Compound 30] | 4.8 | 65 |  | 10 | ~10 | 0.77 | 
26 | CC[C@]1(NC(=O)NCc2ccccn2)C[C@@H]2CN(CCc3c([nH]c4ccccc34)[C@@](C(=O)OC)(c3cc4c(cc3OC)N(C)[C@H]3[C@@](O)(C(=O)OC)[C@H](OC(C)=O)[C@]5(CC)C=CCN6CC[C@]43[C@@H]65)C2)C1 [Compound 33] | 24 | 670 | 5.6 |  |  |  | 
